Relative viability data for one cell line are collected here from the supplement of paper PMC10307832.

Holding throughout (experiment): relative viability (nuclei count vs DMSO), 5 days (fraction); higher = more cells survive
Compound in assay [1]: CC1=NC=CC(=C1)C2=CC=C(C=C2)CC(=O)NC3=CC=C(C=C3)C4=CN=CC=C4 [Wnt-C59] + CC(=O)Nc1cccc(-n2c(=O)n(C3CC3)c(=O)c3c(Nc4ccc(I)cc4F)n(C)c(=O)c(C)c32)c1 [Trametinib] (partner 0.02 µM)
The method, boiled down: (§1)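 After 5 days of treatment, lung cancer cells in 1536-well plates were fixed and stained in a single step (final 0.05% Triton X-100, 1% formaldehyde, 1 ug/ml Hoechst) and their nuclei counted on 4× images. Treatment had been applied by pin tool the day after seeding as one drug alone or as a fixed anchor-drug dose with five library-drug doses (not always all listed) in √10 steps. Relative viability is the nuclei count of treated wells divided by that of vehicle wells, and values are medians of duplicate plates.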

Compound in assay [2]: CC1=NC=CC(=C1)C2=CC=C(C=C2)CC(=O)NC3=CC=C(C=C3)C4=CN=CC=C4 [Wnt-C59] + COc1cccc2cc(-c3nc([C@H]4CC[C@H](C(=O)O)CC4)n4ncnc(N)c34)[nH]c12 [OSI-027] (partner 0.5 µM)
The method, boiled down:
as §1

Compound in assay [3]: CS(=O)(=O)CCNCc1ccc(-c2ccc3ncnc(Nc4ccc(OCc5cccc(F)c5)c(Cl)c4)c3c2)o1 [Lapatinib] + CC1(C)CCC(c2ccc(Cl)cc2)=C(CN2CCN(c3ccc(C(=O)NS(=O)(=O)c4ccc(N[C@H](CCN5CCOCC5)CSc5ccccc5)c(S(=O)(=O)C(F)(F)F)c4)cc3)CC2)C1 [Navitoclax] (partner 0.5 µM)
An outline of the steps:
as §1

Compound in assay [4]: CS(=O)(=O)CCNCc1ccc(-c2ccc3ncnc(Nc4ccc(OCc5cccc(F)c5)c(Cl)c4)c3c2)o1 [Lapatinib] + O=C(CCCCCCC(=O)Nc1ccccc1)NO [Vorinostat] (partner 1 µM)
An outline of the steps: as §1

Turning to UMC-11, the relative viability came out at 0.654 in assay [1] (first compound 0.001 µM); 0.812 in assay [1] (first compound 0.01 µM); 0.698 in assay [1] (first compound 0.03162 µM); 0.758 in assay [1] (first compound 0.1 µM); 0.464 in assay [2] (first compound 0.001 µM); 0.495 in assay [2] (first compound 0.01 µM). The relative viability in assay [2] (first compound 0.03162 µM) was 0.477; in assay [2] (first compound 0.1 µM) it was 0.462; in assay [3] (first compound 0.02 µM) it was 0.352; in assay [3] (first compound 0.06325 µM) it was 0.278; in assay [3] (first compound 0.2 µM) it was 0.311; in assay [3] (first compound 0.6325 µM) it was 0.318. In addition, the relative viability in assay [3] (first compound 2 µM) came to 0.314; in assay [4] (first compound 0.02 µM), 0.42; in assay [4] (first compound 0.06325 µM) it was 0.384; in assay [4] (first compound 0.2 µM) it was 0.39; in assay [4] (first compound 0.6325 µM), 0.367; in assay [4] (first compound 2 µM), 0.321.
